Reference: ChEMBL document CHEMBL1151479, “Hypoxia-inducible factor-1 inhibitory benzofurans and chalcone-derived diels-alder adducts from Morus species” (J Nat Prod, 2009)

Columns and labels:
[1] = test system: Hep 3B2; test: Inhibition of hypoxia-induced VEGF protein secretion in human Hep3B cells after 16 hrs by ELISA; assay type: functional, cell-based
[2] = biological target: Hypoxia inducible factors; HIF-1-alpha, HIF-2-alpha (Homo sapiens, UniProt Q16665+Q99814); test: Inhibition of hypoxia-induced HIF1 activation in human Hep3B cells by pGL3-HRE-luciferase reporter gene assay; assay type: cell-based; settings: hep 3b2
[3] = Cytotoxicity against human Hep3B cells after 24 hrs by MTT assay; assay type: cell-based; settings: hep 3b2, 24 h
[4] = test system: Hep 3B2; test: Effect on luciferase activity in human Hep3B cells exposed to hypoxic condition for 16 hrs; assay type: functional, cell-based
[5] = test system: Hep 3B2; test: Inhibition of luciferase expression in human Hep3B cells after 16 hrs under hypoxic condition; assay type: functional, cell-based

Structure (SMILES)	IC50 [1]	IC50 [2]	EC50 [4]	IC50 [5]	Activity [3]
CC(C)=CCc1c(O)ccc(C(=O)[C@H]2[C@@H](c3c(O)ccc(C(=O)/C=C/c4ccc(O)cc4O)c3O)C=C(C)C[C@@H]2c2ccc(O)cc2O)c1O	3.14 µM	8.55 µM			Dose-dependent effect
CC(C)=CCC/C(C)=C/Cc1c(O)cc(O)cc1-c1cc2ccc(O)cc2o1 [ALBAFURAN A]	2.62 µM	6.27 µM			Dose-dependent effect
CC(C)=CCc1c(O)ccc(C(=O)[C@H]2[C@@H](c3c(O)ccc(C(=O)/C=C/c4ccc(O)cc4)c3O)C=C(C)C[C@@H]2c2ccc(O)cc2)c1O	7.84 µM	9.54 µM			
C[C@@]12C=C(c3c(O)cc(-c4cc5ccc(O)cc5o4)cc3O)C[C@@H](C1)c1ccc(O)cc1O2 [MULBERROFURAN H]	15.4 µM	> 30 µM			Dose-dependent effect
CC(C)=CCC/C(C)=C\CC/C(C)=C\Cc1c(O)cc(O)cc1-c1cc2ccc(O)cc2o1 [MULBERROFURAN W]	3.05 µM	6.07 µM			
CC(C)(O)C1Cc2cc3cc(-c4cc(O)cc(O)c4)oc3cc2O1 (stereo not drawn) [MORACIN O]	7.22 µM	> 30 µM	0.001 µM	0.00179 µM	Dose-dependent effect
CC(C)=CCC/C(C)=C/Cc1c(O)ccc2cc(-c3cc(O)cc(O)c3CC=C(C)C)oc12 [MULBERROFURAN D]	2.17 µM	8.76 µM			Dose-dependent effect
CO[C@H]1/C=C\C=C(/C)C(=O)NC2=CC(=O)C(NCCN(C)C)=C(C[C@@H](C)C[C@H](OC)[C@H](O)[C@@H](C)/C=C(\C)[C@@H]1OC(N)=O)C2=O [ALVESPIMYCIN]	0.0795 µM	> 30 µM			
CC(C)=CC[C@@]12Oc3cc(O)c([C@H]4C=C(C)C[C@H](c5ccc(O)cc5O)[C@H]4C(=O)c4ccc(O)cc4O)c(O)c3C(=O)[C@]1(O)Oc1cc(O)ccc12 [SANGGENON O]	2.08 µM	8.75 µM			Dose-dependent effect

Further lines, with some results ahead:

IC50 [1]	IC50 [2]	EC50 [4]	IC50 [5]	Structure (SMILES)	Activity [3]
> 50 µM	> 30 µM			Oc1cc(O)cc(-c2cc3ccc(O)cc3o2)c1 [MORACIN M]	
28.6 µM	> 30 µM			CC1=C[C@H]2c3c(O)cc(-c4cc5ccc(O)cc5o4)cc3O[C@@]3(c4ccc(O)cc4O)Oc4cc(O)ccc4[C@H](C1)[C@@H]23 [MULBERROFURAN G]	
9.28 µM	> 30 µM			COc1c(O)cc2oc(-c3cc(O)cc(O)c3)cc2c1CC(=O)C(C)C [MORACIN Q]	Dose-dependent effect
3.2 µM	8.26 µM			CC(C)=CC[C@]12Oc3cc(O)c([C@H]4C=C(C)C[C@H](c5ccc(O)cc5O)[C@H]4C(=O)c4ccc(O)cc4O)c(O)c3C(=O)[C@@]1(O)Oc1cc(O)ccc12 [SANGGENON C]	
10.6 µM	> 30 µM			CC1(C)Oc2cc3oc(-c4cc(O)cc(O)c4)cc3cc2C[C@H]1O [MORACIN P]	Dose-dependent effect
